The values that follow come from patent US8097730B2, “Bicyclic heterocycles useful as selective androgen receptor modulators” (Janssen Pharmaceutica N.V., priority 2006, dated 2012).

Read-outs that look alike come from different tables or passages of the source.

In test [1] the test system is Immature castrated male Sprague Dawley rats; ventral prostate and levator ani. Kind of test: Ventral Prostate and Levator Ani Weight In Vivo Assay (agonist activity, percent stimulation of tissue weight). On the set-up: species or system rat; key to % Prostate Stimulation: level 1 agonist active if it produced greater than or equal to 30% stimulation of levator ani or ventral prostate at 30 mg/kg; level 2 agonist active if it produced greater than or equal to 5% but less than 30% stimulation of levator ani or ventral prostate at 30 mg/kg; listed herein as “inactive” as they did not meet the specified criteria defined above. Conditions: once daily for five days, oral, vehicle = 0%, testosterone alone = 100%, classes defined at 30 mg/kg; for change in vivo at 30 mg/kg: Rattus norvegicus, 120 h. The method, then: Ventral Prostate and Levator Ani Weight In Vivo Assay
(§1) Immature (approximately 50 g) castrated male Sprague Dawley rats (Charles River) were treated once daily for five days with test compound (usually given orally at 40 mg/kg in a volume of 0.3 mL, in 30% cyclodextrin or 0.5% methylcellulose vehicle) and with testosterone propionate (given subcutaneously by injection at the nape of the neck at 2 mg/kg, in a volume of 0.1 mL in sesame oil). On the sixth day, the rats were euthanized by asphyxiation in carbon dioxide. Ventral prostates and levator ani muscles were removed and their wet weights determined.
Test compound activity was determined as the percent stimulation of tissue weight, with the vehicle-treated control group set to zero percent and the testosterone alone-treated control group set to 100%. A compound was designated as level 1 agonist active if it produced greater than or equal to 30% stimulation of levator ani or ventral prostate at 30 mg/kg. A compound was designated as level 2 agonist active if it produced greater than or equal to 5% but less than 30% stimulation of levator ani or ventral prostate at 30 mg/kg.
Representative compounds of the present invention were tested according to the procedure described, with results as listed in Table 3 below.

Test [2] deals with Immature castrated male Sprague Dawley rats; ventral prostate and seminal vesicle. Kind of test: Ventral Prostate and Seminal Vesicle Weight In Vivo Assay (antagonist activity, percent inhibition of testosterone-enhanced tissue weights). Also on record: species or system rat; key to Inhibition of prostate (non-weight prostate weight, mg): level 1 agonist active if it produced greater than or equal to 30% stimulation of levator ani or ventral prostate at 30 mg/kg; level 2 agonist active if it produced greater than or equal to 5% but less than 30% stimulation of levator ani or ventral prostate at 30 mg/kg; listed herein as “inactive” as they did not meet the specified criteria defined above. To be noted: compound oral once daily for five days with testosterone propionate 2 mg/kg s.c., classes defined at 30 mg/kg; for inhibition in vivo at 30 mg/kg: Rattus norvegicus, 120 h. The method, then: Ventral Prostate and Seminal Vesicle Weight In Vivo Assay
as §1, with “([…],” for “(usually given orally at 40 mg/kg in a volume of 0.3 mL,”, “prosatates” for “prostates”, “seminal vesicles” for “levator ani muscles”, “determined. Test compound activity was determined as the percent inhibition of testosterone-enhanced tissue weights, with a vehicle-treated control group set to zero percent and a testosterone alone-treated control group set to 100%.” for “determined.”
Representative compounds of the present invention were tested according to the procedure described, with results as listed in Table 4 below.

[3] abbreviates: levator ani wet weight, read-out: % levator ani Stimulation.
[4] abbreviates: ventral prostate wet weight, read-out: % Prostate Stimulation.
Where [5] appears, read: seminal vesicle wet weight, read-out: Inhibition of seminal vesicle (non-weight seminal vesicle weight, mg).
The mark [6] stands for this setting: ventral prostate wet weight, read-out: Inhibition of prostate (non-weight prostate weight, mg).

Consider `CC12CC(C(F)(F)F)=NN1C(=O)N(c1ccc(C#N)c(C(F)(F)F)c1)C2=O` (centres unmarked) [Compound 1, 4-(3a-Methyl-4,6-dioxo-2-trifluoromethyl-3a,4-dihydro-3H-imidazo[1,5-b]pyrazol-5-yl)-2-trifluoromethyl-benzonitrile], for which the change in vivo at 30 mg/kg in test [1] (setting [3]) was no less than 30%; in test [1] (setting [4]), 5 to 30%. Moreover, the inhibition in vivo at 30 mg/kg in test [2] (setting [5]) and in test [2] (setting [6]) was 5 to 30% throughout.
As for `C[C@]12CC(C(F)(F)F)=NN1C(=O)N(c1ccc(C#N)c(C(F)(F)F)c1)C2=O` [Compound 2, (R)-4-(3a-Methyl-4,6-dioxo-2-trifluoromethyl-3a,4-dihydro-3H-imidazo[1,5-b]pyrazol-5-yl)-2-trifluoromethyl-benzonitrile], the values for the change in vivo at 30 mg/kg in test [1] (setting [3]) and in test [1] (setting [4]) were no less than 30% and 5 to 30%, respectively. Further, the inhibition in vivo at 30 mg/kg in test [2] (setting [5]) and in test [2] (setting [6]) was 5 to 30% throughout.
Turning to `C[C@@]12CC(C(F)(F)F)=NN1C(=O)N(c1ccc(C#N)c(C(F)(F)F)c1)C2=O` [Compound 3, (S)-4-(3a-Methyl-4,6-dioxo-2-trifluoromethyl-3a,4-dihydro-3H-imidazo[1,5-b]pyrazol-5-yl)-2-trifluoromethyl-benzonitrile], the change in vivo at 30 mg/kg in test [1] (setting [3]) and in test [1] (setting [4]) was no less than 30% each time. The inhibition in vivo at 30 mg/kg in test [2] (setting [5]) and in test [2] (setting [6]) was 5 to 30% throughout.
In the case of `CC12CC=NN1C(=O)N(c1ccc(C#N)c(C(F)(F)F)c1)C2=O` (centres unmarked) [Compound 4, 4-(3a-Methyl-4,6-dioxo-3a,4-dihydro-3H-imidazo[1,5-b]pyrazol-5-yl)-2-trifluoromethyl-benzonitrile], in test [1] (levator ani wet weight), the “% levator ani Stimulation” value was “Inactive”. In addition, the “% Prostate Stimulation” value in test [1] (ventral prostate wet weight) is “inactive”. Moreover, the inhibition in vivo at 30 mg/kg in test [2] (setting [5]) and in test [2] (setting [6]) was 5 to 30% throughout.
Regarding `CCOC(=O)C1=NN2C(=O)N(c3ccc(C#N)c(C(F)(F)F)c3)C(=O)C2(C)C1` (centres unmarked) [Compound 5, 5-(4-Cyano-3-trifluoromethyl-phenyl)-3a-methyl-4,6-dioxo-3a,4,5,6-tetrahydro-3H-imidazo[1,5-b]pyrazole-2-carboxylic acid ethyl ester], in test [1] (levator ani wet weight), the “% levator ani Stimulation” value is “Inactive”. Further, the “% Prostate Stimulation” value in test [1] (ventral prostate wet weight) was “inactive”. Further, the inhibition in vivo at 30 mg/kg in test [2] (setting [5]) and in test [2] (setting [6]) was 5 to 30% each time.
Take `CCOC(=O)C1=NN2C(=O)N(c3ccc([N+](=O)[O-])c(C(F)(F)F)c3)C(=O)C2(C)C1` (centres unmarked) [Compound 6, 3a-Methyl-5-(4-nitro-3-trifluoromethyl-phenyl)-4,6-dioxo-3a,4,5,6-tetrahydro-3H-imidazo[1,5-b]pyrazole-2-carboxylic acid ethyl ester]: the “% levator ani Stimulation” value in test [1] (levator ani wet weight) was “Inactive”. Moreover, the “% Prostate Stimulation” value in test [1] (ventral prostate wet weight) was “inactive”. For the same compound, the inhibition in vivo at 30 mg/kg in test [2] (setting [5]) and in test [2] (setting [6]) was 5 to 30% throughout.
Take `CC(=O)Nc1ccc(C2=NN3C(=O)N(c4ccc(C#N)c(C(F)(F)F)c4)C(=O)C3(C)C2)cc1` (centres unmarked) [Compound 7, N-{4-[5-(4-Cyano-3-trifluoromethyl-phenyl)-3a-methyl-4,6-dioxo-3a,4,5,6-tetrahydro-3H-imidazo[1,5-b]pyrazol-2-yl]-phenyl}-acetamide]: the change in vivo at 30 mg/kg in test [1] (setting [3]) and in test [1] (setting [4]) was 5 to 30% throughout. Besides, the inhibition in vivo at 30 mg/kg in test [2] (setting [6]) lay within 5 to 30%. In addition, in test [2] (seminal vesicle wet weight), the “Inhibition of seminal vesicle (non-weight seminal vesicle weight, mg)” value was “Inactive”.
As to `CCOC(=O)C1=NN2C(=O)C(=O)N(c3ccc(C#N)c(C(F)(F)F)c3)C(=O)C2(C)C1` (centres unmarked) [Compound 8, 5-(4-Cyano-3-trifluoromethyl-phenyl)-3a-methyl-4,6,7-trioxo-3,3a,4,5,6,7-hexahydro-pyrazolo[1,5-a]pyrazine-2-carboxylic acid ethyl ester], the change in vivo at 30 mg/kg in test [1] (setting [3]) fell in the range of 5 to 30%. The “% Prostate Stimulation” value in test [1] (ventral prostate wet weight) is “inactive”. Moreover, the inhibition in vivo at 30 mg/kg in test [2] (setting [5]) fell in the range of 5 to 30%. The “Inhibition of prostate (non-weight prostate weight, mg)” value in test [2] (ventral prostate wet weight) was “inactive”.
Turning to `C[C@@]12CC(C(F)(F)F)=NN1[S+]([O-])N(c1ccc(C#N)c(C(F)(F)F)c1)C2=O` (stereo partly drawn) [Compound 10, (S)-4-(3a-Methyl-1,3-dioxo-5-trifluoromethyl-3a,4-dihydro-3H-1I4-thia-2,6,6a-triaza-pentalen-2-yl)-2-trifluoromethyl-benzonitrile], the change in vivo at 30 mg/kg in test [1] (setting [3]) and in test [1] (setting [4]) was no less than 30% throughout. Besides, the values for the inhibition in vivo at 30 mg/kg in test [2] (setting [5]) and in test [2] (setting [6]) were 5 to 30% and no less than 30%, respectively.
Take `C[C@@]12CC(C(F)(F)F)=NN1S(=O)(=O)N(c1ccc(C#N)c(C(F)(F)F)c1)C2=O` [Compound 11, 4-(3a-Methyl-1,1,3-trioxo-5-trifluoromethyl-3a,4-dihydro-3H-1I6-thia-2,6,6a-triaza-pentalen-2-yl)-2-trifluoromethyl-benzonitrile]: the change in vivo at 30 mg/kg in test [1] (setting [3]) and in test [1] (setting [4]) was no less than 30% throughout. The inhibition in vivo at 30 mg/kg in test [2] (setting [5]) and in test [2] (setting [6]) was 5 to 30% in each case.
On to `CC12COC(=O)N1C(=O)N(c1ccc(Cl)c(C(F)(F)F)c1)C2=O` (centres unmarked) [Compound 12, 6-(4-Chloro-3-trifluoromethyl-phenyl)-7a-methyl-dihydro-imidazo[1,5-c]oxazole-3,5,7-trione], for which the “% levator ani Stimulation” value in test [1] (levator ani wet weight) is “Inactive”. For the same compound, the “% Prostate Stimulation” value in test [1] (ventral prostate wet weight) was “inactive”. Besides, the inhibition in vivo at 30 mg/kg in test [2] (setting [5]) and in test [2] (setting [6]) was 5 to 30% each time.
For `CC12CNC(=O)N1C(=O)N(c1ccc(Cl)c(C(F)(F)F)c1)C2=O` (centres unmarked) [Compound 13, 2-(4-Chloro-3-trifluoromethyl-phenyl)-7a-methyl-dihydro-imidazo[1,5-c]imidazole-1,3,5-trione], the “% levator ani Stimulation” value in test [1] (levator ani wet weight) is given as “Inactive”. The “% Prostate Stimulation” value in test [1] (ventral prostate wet weight) was “inactive”. Also, the inhibition in vivo at 30 mg/kg in test [2] (setting [5]) and in test [2] (setting [6]) was no less than 30% in each case.
Turning to `CC12CNC(=O)N1C(=O)N(c1ccc(C#N)c(C(F)(F)F)c1)C2=O` (centres unmarked) [Compound 15, 4-(7a-Methyl-1,3,5-trioxo-tetrahydro-imidazo[1,5-c]imidazol-2-yl)-2-trifluoromethyl-benzonitrile], the “% levator ani Stimulation” value in test [1] (levator ani wet weight) is “Inactive”. The “% Prostate Stimulation” value in test [1] (ventral prostate wet weight) is “inactive”. In addition, the inhibition in vivo at 30 mg/kg in test [2] (setting [5]) and in test [2] (setting [6]) was no less than 30% each time.
Regarding `CN1CC2(C)C(=O)N(c3ccc(Cl)c(C(F)(F)F)c3)C(=O)N2C1=O` (centres unmarked) [Compound 16, 2-(4-Chloro-3-trifluoromethyl-phenyl)-6,7a-dimethyl-dihydro-imidazo[1,5-c]imidazole-1,3,5-trione], the “% levator ani Stimulation” value in test [1] (levator ani wet weight) is “Inactive”. Besides, in test [1] (ventral prostate wet weight), the “% Prostate Stimulation” value is “inactive”. The inhibition in vivo at 30 mg/kg in test [2] (setting [5]) and in test [2] (setting [6]) was no less than 30% in each case.
